± gives the expanded uncertainty stated by the source.
Tests used:
[1] = Crystal; DTA
[2] = Molar enthalpy of transition or fusion; settings: Crystal; DSC

With CC[C@@]1(O)C(=O)OCc2c1cc1n(c2=O)Cc2cc3cc(O)ccc3nc2-1 the Normal melting temperature [1] was 194.00 ± 1 °C and the “Molar enthalpy of transition or fusion” value [2] was 12.8 ± 0.335 kcal/mol.

Reference: the NIST ThermoML archive (doi:10.1021/je900283v)
